Data: patent US6498254B1, “Antiretroviral compounds and compositions” (Uniroyal Chemical Company, Inc., priority 2001, dated 2002)
≈ marks a conversion by molar mass, not a printed value.

Assays:
[1] = system: HIV-2 (ROD); assay: Inhibition of HIV-2 syncytium formation in CEM cells; assay type: cell-based; details: for EC50: Human immunodeficiency virus 2, CCRF-CEM, read-out: EC50 (μg/ml) HIV-2; for EC50 / EC50 (μg/ml) HIV-2: HIV-2 (ROD) infected CEM cells, syncytium formation, day four post infection; for HIV-2 % Protection: protection of CEM cells against virus-induced cytopathicity at the compound concentration in the previous column
Text: (§1) The cell type used to determine activity of the compounds of the invention herein, i.e., the test compounds, against HIV was human T-lymphoblast (CEM) cells obtained from the American Tissue Cell Culture Collection (Rockville, Md.). HIV-1 (IIIB) was originally obtained from the culture of persistently HIV-1 infected H9 cells and was provided by R. C. Gallo and M. Popovic (National Cancer Institute, National Institutes of Health, Bethesda, Md.). HIV-2 (ROD) was originally obtained from L. M. Montagnier (Pasteur Institute, Paris, France).
(§2) To determine the antiviral activity of the test compounds, CEM cells were suspended at a cell density of approximately 300,000 cells per ml of culture medium and infected with approximately 100 CClD50 (100 CClD50 being the 50% cell culture infective dose) of HIV-1 (IIIB) or HIV-2 (ROD)). Then 100 μl of the infected cell suspensions was added to 200 μl micro titer plate wells containing 100 μl of appropriate serial (5-fold) dilutions of the test compounds. The inhibitory effect of the test compounds on HIV-1 or HIV-2 syncytium formation in CEM cells was examined microscopically on day four post infection. The 50% effective concentration (EC50) was defined as the test compound concentration that inhibits syncytium formation in the HIV-1 or HIV-2 infected cell cultures by 50%.
(§3) In some cases, the compounds had considerable cytotoxicity to CEM cells which made determination of the EC50 difficult. In these cases, the percent protection of the cells against virus-induced cytopathicity by the test compounds at the indicated compound concentration in the previous column is given.

[2] = system: HIV-1 (IIIB); assay: Inhibition of HIV-1 syncytium formation in CEM cells; assay type: cell-based; details: for EC50: Human immunodeficiency virus 1, CCRF-CEM, read-out: EC50 (μg/ml) HIV-1; for EC50 / EC50 (μg/ml) HIV-1: HIV-1 (IIIB) infected CEM cells, syncytium formation, day four post infection; for HIV-1 % Protection: protection of CEM cells against virus-induced cytopathicity at the compound concentration in the previous column
Text: as §1, §2, §3

[3] = system: CMV Davis strain; assay: Activity against HCMV: virus-induced cytopathicity in HEL cells; assay type: cell-based, human cytomegalovirus (HCMV); details: for IC50: Human betaherpesvirus 5, 168 h, read-out: Antiviral IC50 (μg/ml) Davis strain; for IC50 / Antiviral IC50 (μg/ml) Davis strain: CMV-infected HEL cells, virus-induced cytopathicity after seven days; for Antiviral % Inhibition Davis strain: estimate of percent protection of HEL cells at the compound concentration
Method: Confluent HEL cells grown in […] microtiter plates were inoculated with CMV at an input of 100 PFU (plaque forming units) per well. After a one to two hour incubation period, residual virus was removed and the infected cells were further incubated with MEM (Minimal Essential Medium) (supplemented with 2% inactivated Fetal Calf Serum (FCS), […], and 0.3% sodium bicarbonate) containing varying concentrations of the test compounds. Antiviral activity was expressed as EC50 (50% effective concentration), or test compound concentration required to reduce virus-induced cytopathicity after seven days by 50% compared to the untreated control.
In some cases, the compounds had considerable cytotoxicity against HEL cells, which made determination of the EC50's difficult. In these cases, an estimate of the percent protection at the compound concentration indicated in the previous columns is given.

Compound	EC50 [1] [µg/mL]	EC50 [2] [µg/mL]	IC50 [3] [µg/mL]	Antiviral % Inhibition Davis strain [3] [%]	EC50 (μg/ml) HIV-2 [1] [µg/mL]	HIV-2 % Protection [1] [%]	EC50 (μg/ml) HIV-1 [2] [µg/mL]	Antiviral IC50 (μg/ml) Davis strain [3] [µg/mL]	HIV-1 % Protection [2] [%]
Cc1ccc([N+](=O)[O-])c(CS(=O)(=O)c2cccc[n+]2[O-])c1 [Compound 62, 2-[[(2-nitro-5-methylphenyl)methyl]sulfonyl]pyridine-N-oxide]	5 (≈ 16.2 µM)	1.9 (≈ 6.16 µM)	> 5	20.0	–	–	–	–	–
2-(2,5-dimethylphenyl)methylsulfinyl)pyridine [Compound 163]	–	–	–	0.0	>100	0.0	3.25	>50	–
N#CC(=Cc1ccccc1)Sc1cccc[n+]1[O-] [Compound 158, 2-(1-cyano-2-phenylethenethio) pyridine-N-oxide]	–	–	–	–	>4	0.0	>4	3.6	0.0
CCc1cccc2c(C)cc(S(=O)(=O)C(C)c3ccccc3)nc12 (centres unmarked) [Compound 107, 8-ethyl-4-methyl-2-[(1-phenylethyl)sulfonyl]quinoline]	> 100	0.65 (≈ 1.91 µM)	> 20	0.0	–	–	–	–	–
ethyl-N-[4-(pyridyl-N-oxide-2-sulfonylmethyl)phenylcarbonyl]carbamate [Compound 60]	–	–	–	0.0	17.0	–	40.00	>50	–
1,4-xylyl-bis-2-sulfonyl pyridine-N-oxide [Compound 23]	–	–	–	20.0	–	37.5	–	>20	37.5
Cc1ccc[n+]([O-])c1S(=O)(=O)Cc1c(Cl)cccc1Cl [Compound 139, 2-[[(2,6-dichlorophenyl)methyl]sulfonyl]-3-methyl-pyridine-N-oxide]	> 20	> 20	43 (≈ 129 µM)	–	–	0.0	–	–	0.0
Cc1ccc(CS(=O)(=O)c2cccc[n+]2[O-])cc1[N+](=O)[O-] [Compound 67, 2-[[(3-nitro-4-methylphenyl)methyl]sulfonyl]pyridine-N-oxide]	2.4 (≈ 7.78 µM)	2.3 (≈ 7.46 µM)	> 50	20.0	–	–	–	–	–
Cc1ccc(C)c(CS(=O)(=O)c2ccccn2)c1 [Compound 150, 2-(2,5-dimethylbenzylsulfonyl)pyridine]	20 (≈ 76.5 µM)	3.25 (≈ 12.4 µM)	> 50	20.0	–	–	–	–	–
Cc1ccc(C)c(C(Cl)S(=O)(=O)c2cccc(C)[n+]2[O-])c1 (centres unmarked) [Compound 73, 2-[(2,5-dimethylphenyl)chloromethylsulfonyl]-6-methylpyridine-N-oxide]	> 100	2.8 (≈ 8.59 µM)	> 20	40.0	–	0.0	–	–	–
2-[(3-methoxy-4-benzyloxy)phenylmethylsulfonyl]pyridine-N-oxide [Compound 61]	–	–	–	–	>4.0	6.0	>4	14.0	0.0
O=S(=O)(Cc1c2ccccc2cc2ccccc12)c1cccc[n+]1[O-] [Compound 51, 2[1-(9-anthryl)methylsulfonyl]pyridine-N-oxide]	> 0.8	> 0.8	1.3 (≈ 3.72 µM)	–	–	0.0	–	–	0.0
Cc1ccc(C)c(C(Cl)S(=O)(=O)c2c(Cl)ccc[n+]2[O-])c1 (centres unmarked) [Compound 125, 3-chloro-2-[[chloro-(2,5-dimethylphenyl)methyl]sulfonyl]pyridine-N-oxide]	> 4	> 4	31.5 (≈ 91 µM)	–	–	0.0	–	–	0.0
